Measured values as given in US10980735B2, “Externally-applied dermal preparation composition containing extract of green tea cultivated under extreme shading” (AMOREPACIFIC CORPORATION, priority 2016, dated 2021).

How the values were obtained:
elastase type III = target: T1, elastase type III (Sus scrofa, UniProt P00772); experiment: Inhibitory effect of elastase activity; assay type: biochemical; conditions: EGCG 250 μM as positive control; 25° C., 15 minutes, pH 8.0
T1 construct: purchased Sigma-Aldrich, U.S.A. E0127
Experimental: The inhibitory effect of elastase activity of the extract of green tea cultivated by extreme light-shielding on anti-aging was measured in comparison with that of EGCG. The elastase and the substrate used herein were purchased from Sigma-Aldrich, […]0127). The inhibitory function of elastase activity was tested according to the following method. In a 96-well plate, […] (200 μL) and 50 μL of a 20 μg/mL elastase type III solution were mixed with a […] Tris-HCL buffer solution (pH 8.0). EGCG 250 μM was used as a positive control, and purified water was used as a non-treated group, which was a negative control. […] After completion of the reaction, the absorbance at the wavelength of 415 nm was measured. […] The inhibitory function of elastase was calculated according to the following Mathematical Formula 2, and the results are shown in Table 10. […] A: Absorbance at the wavelength of 415 nm in the absence of the test material and in the presence of enzyme B: Absorbance at the wavelength of 415 nm in the absence of the test material and enzyme C: Absorbance at the wavelength of 415 nm in the presence of the test material and enzyme D: Absorbance at the wavelength of 415 nm in the presence of the test material and in the absence of enzyme

collagenase (MMP-1) = experiment: Collagenase (MMP-1) production in human fibroblasts (ELISA); assay type: cell-based; conditions: 10 μg/ml, 24 hours, non-treated group = 100
Experimental: The collagenase production inhibitory effect of the present invention on wrinkle improvement was measured in comparison with retinoic acid.
Human fibroblasts were seeded at 5,000 cells/well in a 96-well microtiter plate filled with a Dulbecco's modified eagle's medium (DMEM) containing 2.5% fetal bovine serum and cultured in a 5% CO2 incubator at 37° C. until they grew by about 70 to 80%. The cells were treated with the extracts of Examples 1 and 2 and Comparative Examples 1 and 3 or retinoic acid at a concentration of 10 μg/ml for 24 hours, and the cell culture was collected.
The production yield of collagenase in the collected cell culture was measured using a collagenase measurement instrument commercially available (Catalog #. RPN 2610, manufactured by Amersham Pharma Inc., USA). […]
The absorbance of the yellow-colored 96-well plate was measured at 405 nm with a spectrophotometer, and the expression level of collagenase was calculated according to the following Mathematical Formula 1. At this time, the absorbance of the cell culture collected from the group not treated with the composition was considered as the control group. Expression level of collagenase (%)=Absorbance of substance-treated cell group/Absorbance of control group×100 [Mathematical Formula 1]

T1 sequence (P00772 27-266): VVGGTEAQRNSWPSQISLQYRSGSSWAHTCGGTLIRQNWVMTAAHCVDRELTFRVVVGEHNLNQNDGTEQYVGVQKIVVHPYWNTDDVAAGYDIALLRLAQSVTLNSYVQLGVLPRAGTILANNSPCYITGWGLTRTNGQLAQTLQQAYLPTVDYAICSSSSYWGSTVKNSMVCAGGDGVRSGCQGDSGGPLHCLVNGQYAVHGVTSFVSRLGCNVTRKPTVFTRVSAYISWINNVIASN

Inhibition level of elastase activity (elastase type III)	Compound	Expression level of collagenase (collagenase (MMP-1))
65%	O=C(O[C@@H]1Cc2c(O)cc(O)cc2O[C@@H]1c1cc(O)c(O)c(O)c1)c1cc(O)c(O)c(O)c1 [EGCG]	
	CC1=C(/C=C/C(C)=C/C=C/C(C)=C/C(=O)O)C(C)(C)CCC1 [Retinoic acid, retinoic acid]	75%
